In patent publication US20240115557A1, “INHIBITORS OF RNA-GUIDED NUCLEASES AND USES THEREOF” (The Brigham and Women's Hospital, Inc., priority 2022, published 2024):

Target: T1, SaCas9 (Staphylococcus aureus, UniProt J7RUA5)
T1 sequence (J7RUA5 1-1053): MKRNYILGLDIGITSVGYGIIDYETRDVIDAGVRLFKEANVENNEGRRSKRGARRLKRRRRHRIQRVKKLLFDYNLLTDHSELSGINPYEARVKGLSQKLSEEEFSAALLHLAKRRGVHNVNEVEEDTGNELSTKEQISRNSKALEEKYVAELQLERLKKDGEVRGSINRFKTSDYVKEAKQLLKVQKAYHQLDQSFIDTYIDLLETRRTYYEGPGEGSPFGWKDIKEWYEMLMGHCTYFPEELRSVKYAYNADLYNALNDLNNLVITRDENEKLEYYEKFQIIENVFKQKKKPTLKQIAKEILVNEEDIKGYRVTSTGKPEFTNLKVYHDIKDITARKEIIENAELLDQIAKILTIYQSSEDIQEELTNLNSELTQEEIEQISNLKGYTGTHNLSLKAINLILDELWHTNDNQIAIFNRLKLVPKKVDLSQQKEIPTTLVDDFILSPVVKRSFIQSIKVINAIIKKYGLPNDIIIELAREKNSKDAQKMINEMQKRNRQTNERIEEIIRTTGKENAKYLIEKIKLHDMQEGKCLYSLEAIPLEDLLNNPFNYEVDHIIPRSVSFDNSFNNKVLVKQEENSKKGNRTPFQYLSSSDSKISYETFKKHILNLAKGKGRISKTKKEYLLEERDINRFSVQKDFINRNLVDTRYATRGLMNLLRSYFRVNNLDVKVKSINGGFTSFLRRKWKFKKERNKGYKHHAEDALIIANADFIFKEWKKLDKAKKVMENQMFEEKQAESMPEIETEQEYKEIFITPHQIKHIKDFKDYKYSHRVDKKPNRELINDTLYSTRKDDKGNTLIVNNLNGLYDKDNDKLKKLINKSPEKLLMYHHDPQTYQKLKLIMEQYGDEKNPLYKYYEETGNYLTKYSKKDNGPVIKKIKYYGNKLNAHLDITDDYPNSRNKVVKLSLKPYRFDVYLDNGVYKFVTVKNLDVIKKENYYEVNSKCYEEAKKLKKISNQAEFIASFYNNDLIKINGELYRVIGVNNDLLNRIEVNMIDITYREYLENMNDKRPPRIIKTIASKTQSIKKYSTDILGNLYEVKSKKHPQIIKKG
Experiment: Strand displacement assay, SaCas9 primary screen
Type: biochemical
Settings: for Auto Zscore Rep 1 / Auto Zscore Rep 2 / Normalized Zscore Rep 1 / Normalized Zscore Rep 2: SaCas9 primary screen; for Auto Zscore Rep 1 / Normalized Zscore Rep 1: replicate 1; for Auto Zscore Rep 2 / Normalized Zscore Rep 2: replicate 2; for Normalized Zscore Rep 1 / Normalized Zscore Rep 2: weaker potential hits; for 3 sigma Hit: flag 1 = hit at 3 sigma; for 5 sigma Hit: flag 1 = hit at 5 sigma
Procedure: An overview of the screening for SaCas9 inhibitors is depicted in FIG. 14. A total of 43,168 Compounds were screened from the ICCB Libraries. Libraries screened for the initial compounds include ChemDiv 7 (34,848 cpds), Enamine 1 (5,280 cpds), ChemDiv1 (1,760 cpds), NIH Clinical Collection (450 cpds), Biomol 4—FDA Approved Library (640 cpds). A hit is determined from the Zscore, with 3-5σ being a weak hit, >5σ being a strong hit. The results of the hits include 193 Weak Hits and 249 Strong Hits. The NIH Clinical Collection 1-2014 was screened for 450 of 450 compounds, with 7 hits—1.5%. The Biomol 4—FDA Approved Library was screened for 640 of 640 compounds, with 8 hits—1.2%. […] Enamine 1 was screened for 5,280 of 6,004 compounds, with 44 hits—0.83%. Libraries are commercially available, with reference numbers utilized for compounds identifying the compound structures used. […]
Generalization of CAA to other Cas nucleases. Applicants sought to generalize CAA to other CRISPR-associated nucleases, including from Staphylococcus aureus (SaCas9). Given the similarities between SaCas9 and SpCas9 modes of DNA-substrate binding and protein folding,^26, 27 Applicants hypothesized that SaCas9-induced strand displacement could be similarly measured. Indeed, fluorescence quenching correlated with substrate cleavage in the CAA assay with active SaCas9:gRNA and an ACGGGT PAM sequence, which was validated with gel electrophoresis (FIG. 62F,G and FIG. 69F).
First, Applicants optimized various components and conditions of the strand displacement assay for Cas enzyme activity and generality with different Cas such as SpCas9 (FIG. 62B) or SaCas9 (FIG. 69F) or FnCas12a (FIG. 70A,B). Typically, SpCas9: gRNA (1:1.2 ratio) RNP was pre-formed at 1 μM in Cas9 assay buffer (20 mM Tris-HCl, pH=7.5, 100 mM KCl, 5 mM MgCl2) for 5 min at 4° C. before diluting to 10 nM in Cas9 assay buffer (2× final concentration). 25 μL of the Cas9 2× stock was manually dispensed to a black 384-well plate (Corning 3575) using electronic pipette. Apo SpCas9 (without guide RNA) was used at the same concentration as a control for no activity (mock inhibition). Following this, pre-annealed Alexa-Fluor 647 labeled substrate and quencher were also diluted to 1 nM and 5 nM in Cas9 assay buffer, respectively (2× stock solution). Next, 25 μL of the substrate/quencher solution was added manually to each well of the Cas9-containing 384-well plates using an electronic pipette and was incubated at 37° C. for 2.5 h. Fluorescent signals were read with the microplate reader set to read Alexa-Fluor 647 fluorescence. Assay was performed similarly with SaCas9 and FnCas12a using the respective enzyme, gRNA, substrate, and quencher oligos. Applicants similarly divulged the effect of PAM sequences of dsDNA on its assay specificity using TGG, TGC, AAC PAM containing substrates for SpCas9 (FIG. 62C), and ACGGGT, ACGGTT, TGCCCA PAM substrate for SaCas9 (FIG. 62F) and TTTC, TTGC, AAAG PAM substrates for FnCpf1 (FIG. 63B-C). Applicants also optimized the effective concentration of DS-AF647 and SS-AF647 fluorophores (FIG. 64A), DS-substrate to SpCas9 RNP ratio (FIG. 64B) and substrate to quencher ratio (FIG. 64C) on assay performance. Similarly, Applicants performed a time course experiment to establish the time required for maximum completion of the reaction at various substrate to SpCas9 RNP ratios (FIG. 64D).

`Fc1ccc(-c2nn3c(CSc4ccccc4)nnc3s2)cc1` [Cpd D727-0190] was tested, and the “Auto Zscore Rep 1” value was 0.8466, the “Auto Zscore Rep 2” value was −0.6764 and the “Normalized Zscore Rep 1” value was 0.2272. For the same compound, the “Normalized Zscore Rep 2” value was 0.2685, the “3 sigma Hit” value was 1 and the “5 sigma Hit” value was 1.

`CCN(Cc1ccccc1)c1ncc(NS(=O)(=O)c2ccccc2)cc1C(=O)O` [Cpd F293-0004] was tested, and the “Auto Zscore Rep 1” value was 1.668, the “Auto Zscore Rep 2” value was 0.9183 and the “Normalized Zscore Rep 1” value was 0.2707. The “Normalized Zscore Rep 2” value was 0.1884, the “3 sigma Hit” value was 1 and the “5 sigma Hit” value was 1.

For `CCOc1ccc(NC(=O)c2oc3cc(C)ccc3c2C)c2cccnc12` [Cpd D656-0040], the “Auto Zscore Rep 1” value was −0.413, the “Auto Zscore Rep 2” value was −1.287 and the “Normalized Zscore Rep 1” value was 0.4389. For the same compound, the “Normalized Zscore Rep 2” value was 0.3581, the “3 sigma Hit” value was 1 and the “5 sigma Hit” value was 1.

For `O=c1ccc2ccc(OCc3nnn[nH]3)cc2o1` [Cpd D715-0997], the “Auto Zscore Rep 1” value was 1.322, the “Auto Zscore Rep 2” value was 0.6629 and the “Normalized Zscore Rep 1” value was 0.2335. For the same compound, the “Normalized Zscore Rep 2” value was 0.4628 and the “3 sigma Hit” value was 1.

With `CCS(=O)(=O)Nc1cnc(N(C)CCCc2c(C)nn(C)c2C)c(C(=O)O)c1` [Cpd F293-0908] the “Auto Zscore Rep 1” value was −0.5672, the “Auto Zscore Rep 2” value was 0.4148 and the “Normalized Zscore Rep 1” value was 0.2527. For the same compound, the “Normalized Zscore Rep 2” value was 0.2772, the “3 sigma Hit” value was 1 and the “5 sigma Hit” value was 1.

In the case of `COc1ccc(C2CC(=O)C3=C(C2)Nc2onc(C)c2C3c2ccc(O)c(O)c2)cc1OC` (centres unmarked) [Cpd D588-0034], the “Auto Zscore Rep 1” value was 0.4938, the “Auto Zscore Rep 2” value was −1.181 and the “Normalized Zscore Rep 1” value was 0.2106. For the same compound, the “Normalized Zscore Rep 2” value was 0.2618, the “3 sigma Hit” value was 1 and the “5 sigma Hit” value was 1.

For `CCN(Cc1ccccc1)c1ccc(NS(=O)(=O)c2cc(OC)ccc2OC)cc1C(=O)O` [Cpd F294-0012], the “Auto Zscore Rep 1” value was −1.677, the “Auto Zscore Rep 2” value was −1.264 and the “Normalized Zscore Rep 1” value was 0.1772. For the same compound, the “Normalized Zscore Rep 2” value was 0.1434 and the “3 sigma Hit” value was 1.

For `CC1CCC(NC(=O)C2(C)Cn3c(cc4occc43)C(=O)N2CCN(C)C2CCCCC2)CC1` (centres unmarked) [Cpd E218-0425], the “Auto Zscore Rep 1” value was −0.4666, the “Auto Zscore Rep 2” value was 0.1007 and the “Normalized Zscore Rep 1” value was 0.2235. For the same compound, the “Normalized Zscore Rep 2” value was 0.1821 and the “3 sigma Hit” value was 1.

In the case of `CCN(Cc1ccccc1)c1ccc(NS(=O)(=O)c2cc(C)ccc2C)cc1C(=O)O` [Cpd F294-0010], the “Auto Zscore Rep 1” value was −0.2001, the “Auto Zscore Rep 2” value was 1.494 and the “Normalized Zscore Rep 1” value was 0.1692. The “Normalized Zscore Rep 2” value was 0.1845 and the “3 sigma Hit” value was 1.

In the case of `COc1ccc(OC)c(S(=O)(=O)Nc2cnc(N3CCCC3)c(C(=O)O)c2)c1` [Cpd F293-0436], the “Auto Zscore Rep 1” value was −1.371, the “Auto Zscore Rep 2” value was 1.264 and the “Normalized Zscore Rep 1” value was 0.1977. The “Normalized Zscore Rep 2” value was 0.2223 and the “3 sigma Hit” value was 1.

For `CC1(C)CC(=O)C2=C(C1)Nc1onc(C(C)(C)C)c1C2c1ccc(O)c(O)c1` (centres unmarked) [Cpd D733-0293], the “Auto Zscore Rep 1” value was −1.043, the “Auto Zscore Rep 2” value was 2.015 and the “Normalized Zscore Rep 1” value was 0.4191. For the same compound, the “Normalized Zscore Rep 2” value was 0.3634, the “3 sigma Hit” value was 1 and the “5 sigma Hit” value was 1.

For `O=C1CC(NC(=O)c2ccc(Cl)cc2)C(=O)N1` (centres unmarked) [Cpd T0513-4457], the “Auto Zscore Rep 1” value was 0.257, the “Auto Zscore Rep 2” value was 0.3998 and the “Normalized Zscore Rep 1” value was 0.4361. For the same compound, the “Normalized Zscore Rep 2” value was 0.4132, the “3 sigma Hit” value was 1 and the “5 sigma Hit” value was 1.

With `Cc1cc(Nc2ccccc2)n(-c2ccccc2C(=O)O)n1` [Cpd T0513-3165] the “Auto Zscore Rep 1” value was 0.05393, the “Auto Zscore Rep 2” value was −1.233 and the “Normalized Zscore Rep 1” value was 0.4933. The “Normalized Zscore Rep 2” value was 0.4517, the “3 sigma Hit” value was 1 and the “5 sigma Hit” value was 1.

`c1ccc(CCCNc2nn3nnnc3c3ccccc23)cc1` [Cpd C301-8945] was tested, and the “Auto Zscore Rep 1” value was 0.8868, the “Auto Zscore Rep 2” value was 0.9986 and the “Normalized Zscore Rep 1” value was 0.2248. For the same compound, the “Normalized Zscore Rep 2” value was 0.1621 and the “3 sigma Hit” value was 1.

In the case of `CCN(Cc1ccccc1)c1ccc(NS(=O)(=O)c2ccccc2)cc1C(=O)O` [Cpd F294-0004], the “Auto Zscore Rep 1” value was −1.138, the “Auto Zscore Rep 2” value was −1.139 and the “Normalized Zscore Rep 1” value was 0.2186. For the same compound, the “Normalized Zscore Rep 2” value was 0.1863 and the “3 sigma Hit” value was 1.

`CCN(Cc1ccccc1)c1ncc(NS(=O)(=O)c2cc(C)ccc2C)cc1C(=O)O` [Cpd F293-0010] was tested, and the “Auto Zscore Rep 1” value was 2.149, the “Auto Zscore Rep 2” value was 2.534 and the “Normalized Zscore Rep 1” value was 0.2507. For the same compound, the “Normalized Zscore Rep 2” value was 0.2028, the “3 sigma Hit” value was 1 and the “5 sigma Hit” value was 1.
